Our source for the IC50 values is patent US20260070945A1, “MACROCYCLIC IMMUNOMODULATORS” (Bristol-Myers Squibb Company, priority 2022, published 2026).

A word on the IC50: it is the point on the concentration scale where inhibition reaches its midpoint.

*1 amine or outer side, *2 acyl side, *3 side chain or, on linkers, in order; H or OH if unused. Where a SMILES comes first, the peptide text is derived from it. Bridges are numbered along the chain shown (N, C = ends). [ ]: non-standard residue; d: D form. The star is where a group is joined. ξ: configuration not given here. Phe(4-COOH) = N[C@@H](Cc1ccc(C(=O)O)cc1)C(=O)O; Bip = N[C@@H](Cc1ccc(-c2ccccc2)cc1)C(=O)O; Phe(3-Me) = Cc1cccc(C[C@H](N)C(=O)O)c1; NMeAEEA = CN(CCOCCOCC(=O)[*:2])[*:1]; Cha = N[C@@H](CC1CCCCC1)C(=O)O; Cit = NC(=O)NCCC[C@H](N)C(=O)O; Thr(3ξ) = CC(O)[C@H](N)C(=O)O; 12Ado = NCCCCCCCCCCCC(=O)O; hSer = N[C@@H](CCO)C(=O)O; Carboxymethyl = O=C(O)C*; NMeA = CN[C@@H](C)C(=O)O; Aun = NCCCCCCCCCCC(=O)O; Dab = NCC[C@H](N)C(=O)O; AEEA = NCCOCCOCC(=O)O

For this experiment, the target named is T1, PD-1/PD-L1 interaction (PE-labeled human PD-L1-Ig binding to Jurkat cell line over-expressing human PD-1) (Homo sapiens, UniProt Q15116).
T1 construct: expressed in transfected cells; host or cells: Jurkat
T1 sequence (Q15116 25-288): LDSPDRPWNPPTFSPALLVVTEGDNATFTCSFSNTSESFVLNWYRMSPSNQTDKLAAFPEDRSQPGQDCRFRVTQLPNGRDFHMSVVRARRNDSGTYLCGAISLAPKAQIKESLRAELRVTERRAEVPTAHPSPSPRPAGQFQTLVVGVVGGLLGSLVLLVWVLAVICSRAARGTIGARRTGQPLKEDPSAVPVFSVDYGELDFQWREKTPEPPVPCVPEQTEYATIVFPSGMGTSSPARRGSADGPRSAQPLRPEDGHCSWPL
The experiment can be described thus: Jurkat-PD-1 Cell Binding High-Content Screening Assay (CBA). The settings on record: Jurkat-hPD-1 cells, PE-labeled PD-L1-Ig 20 nM final; read-out: Jurkat HPD1 PDL1 IC50. The method, boiled down: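 Read-out: high-content imaging of cell-bound PE fluorescence, with Hoechst 33342 nuclear counterstain after paraformaldehyde fixation. Before labeled ligand (20 nM final, 1 h) was added, compound sat on the cells for 2 h at 37 °C in DMEM/10% FCS.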
`Cc1cccc(C[C@@H]2NC(=O)[C@H](CC(=O)O)NC(=O)[C@H](Cc3ccc(OCC(=O)O)cc3)NC(=O)[C@H](C(C)O)NC(=O)CSC[C@@H](C(=O)N[C@@H](CCN)C(=O)NCCCCCCCCCCC(=O)O)NC(=O)[C@H](C(C)O)NC(=O)[C@H](C(C)C)NC(=O)[C@H](CC3CCCCC3)NC(=O)[C@H](CCN)NC(=O)[C@@H](CC(C)C)NC(=O)[C@H](C)N(C)C(=O)[C@H](Cc3ccc(OCC(=O)O)cc3)NC(=O)[C@H](Cc3ccc(-c4ccccc4)cc3)NC(=O)[C@H](Cc3ccc(C(=O)O)cc3)NC2=O)c1` (stereo partly drawn) [Example 2353] ({CH2CO}-[Thr(3ξ)]Y(Carboxymethyl)D[Phe(3-Me)][Phe(4-COOH)][Bip]Y(Carboxymethyl)[NMeA][dL][Dab][Cha]V[Thr(3ξ)]C[Dab][Aun]-OH; thioether N-14): the half-inhibitory concentration (IC50) was 21.5 nM.

Consider `Cc1cccc(C[C@@H]2NC(=O)[C@H](CC(=O)O)NC(=O)[C@H](Cc3ccc(OCC(=O)O)cc3)NC(=O)[C@H](C(C)O)NC(=O)CSC[C@@H](C(=O)N[C@@H](CCN)C(=O)NCCCCCCCCCCC(=O)O)NC(=O)[C@H](C(C)O)NC(=O)[C@H](C(C)C)NC(=O)[C@H](CC3CCCCC3)NC(=O)[C@H](CCN)NC(=O)[C@@H](CC(C)C)NC(=O)[C@H](C)N(C)C(=O)[C@H](Cc3ccc(OCC(=O)O)cc3)NC(=O)[C@H](Cc3ccc(-c4ccccc4)cc3)NC(=O)[C@H](CCCNC(N)=O)NC2=O)c1` (stereo partly drawn) [Example 2354] ({CH2CO}-[Thr(3ξ)]Y(Carboxymethyl)D[Phe(3-Me)][Cit][Bip]Y(Carboxymethyl)[NMeA][dL][Dab][Cha]V[Thr(3ξ)]C[Dab][Aun]-OH; thioether N-14), for which the IC50 is 21.4 nM.

With `Cc1cccc(C[C@@H]2NC(=O)[C@H](CC(=O)O)NC(=O)[C@H](Cc3ccc(OCC(=O)O)cc3)NC(=O)[C@H](C(C)O)NC(=O)CSC[C@@H](C(=O)N(C)CCOCCOCC(=O)NCCCCCCCCCCC(=O)O)NC(=O)[C@H](C(C)C)NC(=O)[C@H](C(C)C)NC(=O)[C@H](CC3CCCCC3)NC(=O)[C@H](CCN)NC(=O)[C@@H](CC(C)C)NC(=O)[C@H](C)N(C)C(=O)[C@H](CCCNC(N)=O)NC(=O)[C@H](Cc3ccc(-c4ccccc4)cc3)NC(=O)[C@H](C(C)C)NC2=O)c1` (stereo partly drawn) [Example 2355] ({CH2CO}-[Thr(3ξ)]Y(Carboxymethyl)D[Phe(3-Me)]V[Bip][Cit][NMeA][dL][Dab][Cha]VVC[NMeAEEA][Aun]-OH; thioether N-14), the IC50 turned out to be 45.3 nM.

`Cc1cccc(C[C@@H]2NC(=O)[C@H](CC(=O)O)NC(=O)[C@H](Cc3ccc(OCC(=O)O)cc3)NC(=O)[C@H](CCCNC(=N)N)NC(=O)CSC[C@@H](C(=O)N(C)CCOCCOCC(=O)NCCCCCCCCCCC(=O)O)NC(=O)[C@H](C(C)C)NC(=O)[C@H](C(C)C)NC(=O)[C@H](CC3CCCCC3)NC(=O)[C@H](CCN)NC(=O)[C@@H](CC(C)C)NC(=O)[C@H](C)N(C)C(=O)[C@H](CCCNC(N)=O)NC(=O)[C@H](Cc3ccc(-c4ccccc4)cc3)NC(=O)[C@H](C(C)C)NC2=O)c1` [Example 2356] ({CH2CO}-RY(Carboxymethyl)D[Phe(3-Me)]V[Bip][Cit][NMeA][dL][Dab][Cha]VVC[NMeAEEA][Aun]-OH; thioether N-14): the 50% inhibitory concentration (IC50) was determined as 34.7 nM.

For the compound `Cc1cccc(C[C@@H]2NC(=O)[C@H](CC(=O)O)NC(=O)[C@H](Cc3ccc(OCC(=O)O)cc3)NC(=O)[C@H](C(C)O)NC(=O)CSC[C@@H](C(=O)N(C)CCOCCOCC(=O)NCCCCCCCCCCC(=O)O)NC(=O)[C@H](CCC(N)=O)NC(=O)[C@H](C(C)C)NC(=O)[C@H](CC3CCCCC3)NC(=O)[C@H](CCN)NC(=O)[C@@H](CC(C)C)NC(=O)[C@H](C)N(C)C(=O)[C@H](C(C)C)NC(=O)[C@H](Cc3ccc(-c4ccccc4)cc3)NC(=O)[C@H](C(C)C)NC2=O)c1` (stereo partly drawn) [Example 2357] ({CH2CO}-[Thr(3ξ)]Y(Carboxymethyl)D[Phe(3-Me)]V[Bip]V[NMeA][dL][Dab][Cha]VQC[NMeAEEA][Aun]-OH; thioether N-14), the concentration for half-maximal inhibition (IC50) was found to be 66.7 nM.

For `CC(=O)NCCCC[C@@H]1NC(=O)[C@H](Cc2ccc(-c3ccccc3)cc2)NC(=O)[C@H](C(C)C)NC(=O)[C@H](Cc2cccc(C)c2)NC(=O)[C@H](CC(=O)O)NC(=O)[C@H](Cc2ccc(OCC(=O)O)cc2)NC(=O)[C@H](C(C)O)NC(=O)CSC[C@@H](C(=O)N(C)CCOCCOCC(=O)NCCCCCCCCCCC(=O)O)NC(=O)[C@H](C(C)C)NC(=O)[C@H](C(C)C)NC(=O)[C@H](CC2CCCCC2)NC(=O)[C@H](CCN)NC(=O)[C@@H](CC(C)C)NC(=O)[C@H](C)N(C)C1=O` (stereo partly drawn) [Example 2358] ({CH2CO}-[Thr(3ξ)]Y(Carboxymethyl)D[Phe(3-Me)]V[Bip]K(Ac)[NMeA][dL][Dab][Cha]VVC[NMeAEEA][Aun]-OH; thioether N-14), the concentration for half-maximal inhibition (IC50) was 16.6 nM.

Regarding `Cc1cccc(C[C@@H]2NC(=O)[C@H](CC(=O)O)NC(=O)[C@H](Cc3ccc(OCC(=O)O)cc3)NC(=O)[C@H](C(C)O)NC(=O)CSC[C@@H](C(=O)N(C)CCOCCOCC(=O)NCCCCCCCCCCC(=O)O)NC(=O)[C@H](CCCNC(N)=O)NC(=O)[C@H](C(C)C)NC(=O)[C@H](CC3CCCCC3)NC(=O)[C@H](CCN)NC(=O)[C@@H](CC(C)C)NC(=O)[C@H](C)N(C)C(=O)[C@H](C(C)C)NC(=O)[C@H](Cc3ccc(-c4ccccc4)cc3)NC(=O)[C@H](C(C)C)NC2=O)c1` (stereo partly drawn) [Example 2359] ({CH2CO}-[Thr(3ξ)]Y(Carboxymethyl)D[Phe(3-Me)]V[Bip]V[NMeA][dL][Dab][Cha]V[Cit]C[NMeAEEA][Aun]-OH; thioether N-14), the IC50 stood at 26.3 nM.

Consider `Cc1cccc(C[C@@H]2NC(=O)[C@H](CC(=O)O)NC(=O)[C@H](Cc3ccc(OCC(=O)O)cc3)NC(=O)[C@H](CCCNC(=N)N)NC(=O)CSC[C@@H](C(=O)N[C@H](CC(N)=O)C(=O)NCCCCCCCCCCC(=O)O)NC(=O)[C@H](C(C)C)NC(=O)[C@H](C(C)C)NC(=O)[C@H](CC3CCCCC3)NC(=O)[C@H](CCN)NC(=O)[C@@H](CC(C)C)NC(=O)[C@H](C)N(C)C(=O)[C@H](Cc3ccc(OCC(=O)O)cc3)NC(=O)[C@H](Cc3ccc(-c4ccccc4)cc3)NC(=O)[C@H](Cc3ccc(OCC(=O)O)cc3)NC2=O)c1` [Example 2360] ({CH2CO}-RY(Carboxymethyl)D[Phe(3-Me)]Y(Carboxymethyl)[Bip]Y(Carboxymethyl)[NMeA][dL][Dab][Cha]VVC[dN][Aun]-OH; thioether N-14), for which the IC50 was 26.9 nM.

Take `Cc1cccc(C[C@@H]2NC(=O)[C@H](CC(=O)O)NC(=O)[C@H](Cc3ccc(OCC(=O)O)cc3)NC(=O)[C@H](C(C)O)NC(=O)CSC[C@@H](C(=O)N[C@H](CC(N)=O)C(=O)NCCCCCCCCCCC(=O)O)NC(=O)[C@H](C(C)C)NC(=O)[C@H](C(C)C)NC(=O)[C@H](CC3CCCCC3)NC(=O)[C@H](CCN)NC(=O)[C@@H](CC(C)C)NC(=O)[C@H](C)N(C)C(=O)[C@H](Cc3ccc(OCC(=O)O)cc3)NC(=O)[C@H](Cc3ccc(-c4ccccc4)cc3)NC(=O)[C@H](Cc3ccc(OCC(=O)O)cc3)NC2=O)c1` (stereo partly drawn) [Example 2361] ({CH2CO}-[Thr(3ξ)]Y(Carboxymethyl)D[Phe(3-Me)]Y(Carboxymethyl)[Bip]Y(Carboxymethyl)[NMeA][dL][Dab][Cha]VVC[dN][Aun]-OH; thioether N-14): the half-maximal inhibitory concentration (IC50) stood at 18.3 nM.

Regarding `Cc1cccc(C[C@@H]2NC(=O)[C@H](CC(=O)O)NC(=O)[C@H](Cc3ccc(OCC(=O)O)cc3)NC(=O)[C@H](CCCNC(=N)N)NC(=O)CSC[C@@H](C(=O)N[C@H](CC(N)=O)C(=O)NCCCCCCCCCCC(=O)O)NC(=O)[C@H](CCO)NC(=O)[C@H](C(C)C)NC(=O)[C@H](CC3CCCCC3)NC(=O)[C@H](CCN)NC(=O)[C@@H](CC(C)C)NC(=O)[C@H](C)N(C)C(=O)[C@H](Cc3ccc(OCC(=O)O)cc3)NC(=O)[C@H](Cc3ccc(-c4ccccc4)cc3)NC(=O)[C@H](Cc3ccc(OCC(=O)O)cc3)NC2=O)c1` [Example 2362] ({CH2CO}-RY(Carboxymethyl)D[Phe(3-Me)]Y(Carboxymethyl)[Bip]Y(Carboxymethyl)[NMeA][dL][Dab][Cha]V[hSer]C[dN][Aun]-OH; thioether N-14), the half-maximal inhibitory concentration (IC50) stood at 40.2 nM.

In the case of `Cc1cccc(C[C@@H]2NC(=O)[C@H](CC(=O)O)NC(=O)[C@H](Cc3ccc(OCC(=O)O)cc3)NC(=O)[C@H](C(C)O)NC(=O)CSC[C@@H](C(=O)N(C)CCOCCOCC(=O)NCCCCCCCCCCC(=O)O)NC(=O)[C@H](C(C)O)NC(=O)[C@H](C(C)C)NC(=O)[C@H](CC3CCCCC3)NC(=O)[C@H](CCN)NC(=O)[C@@H](CC(C)C)NC(=O)[C@H](C)N(C)C(=O)[C@H](C(C)C)NC(=O)[C@H](Cc3ccc(-c4ccccc4)cc3)NC(=O)[C@H](C(C)C)NC2=O)c1` (stereo partly drawn) [Example 2363] ({CH2CO}-[Thr(3ξ)]Y(Carboxymethyl)D[Phe(3-Me)]V[Bip]V[NMeA][dL][Dab][Cha]V[Thr(3ξ)]C[NMeAEEA][Aun]-OH; thioether N-14), the IC50 was found to be 21.9 nM.

As for `Cc1cccc(C[C@@H]2NC(=O)[C@H](CC(=O)O)NC(=O)[C@H](Cc3ccc(OCC(=O)O)cc3)NC(=O)[C@H](C(C)O)NC(=O)CSC[C@@H](C(=O)N(C)CCOCCOCC(=O)NCCCCCCCCCCC(=O)O)NC(=O)[C@H](CCO)NC(=O)[C@H](C(C)C)NC(=O)[C@H](CC3CCCCC3)NC(=O)[C@H](CCN)NC(=O)[C@@H](CC(C)C)NC(=O)[C@H](C)N(C)C(=O)[C@H](C(C)C)NC(=O)[C@H](Cc3ccc(-c4ccccc4)cc3)NC(=O)[C@H](C(C)C)NC2=O)c1` (stereo partly drawn) [Example 2364] ({CH2CO}-[Thr(3ξ)]Y(Carboxymethyl)D[Phe(3-Me)]V[Bip]V[NMeA][dL][Dab][Cha]V[hSer]C[NMeAEEA][Aun]-OH; thioether N-14), the IC50 is 36.3 nM.

`Cc1cccc(C[C@@H]2NC(=O)[C@H](CC(=O)O)NC(=O)[C@H](Cc3ccc(C(=O)O)cc3)NC(=O)[C@H](Cc3ccc(OCC(=O)O)cc3)NC(=O)CSC[C@@H](C(=O)NCCOCCOCC(=O)NCCCCCCCCCCCC(=O)O)NC(=O)[C@H](CCCCN)NC(=O)[C@H](C(C)C)NC(=O)[C@H](CC3CCCCC3)NC(=O)[C@H](Cc3cnc[nH]3)NC(=O)[C@@H](CC(C)C)NC(=O)[C@H](C)N(C)C(=O)[C@H](CCCNC(N)=O)NC(=O)[C@H](Cc3ccc(-c4ccccc4)cc3)NC(=O)[C@H](C(C)C)NC2=O)c1` [Example 2367] ({CH2CO}-Y(Carboxymethyl)[Phe(4-COOH)]D[Phe(3-Me)]V[Bip][Cit][NMeA][dL]H[Cha]VKC[AEEA][12Ado]-OH; thioether N-14): the IC50 stood at 67.1 nM.
